The target in experiment [1] is T1, α1A (h) (Homo sapiens, UniProt P35348).
T1 construct: expressed in transfected cells; host or cells: CHO cells
T1 sequence (P35348 1-466): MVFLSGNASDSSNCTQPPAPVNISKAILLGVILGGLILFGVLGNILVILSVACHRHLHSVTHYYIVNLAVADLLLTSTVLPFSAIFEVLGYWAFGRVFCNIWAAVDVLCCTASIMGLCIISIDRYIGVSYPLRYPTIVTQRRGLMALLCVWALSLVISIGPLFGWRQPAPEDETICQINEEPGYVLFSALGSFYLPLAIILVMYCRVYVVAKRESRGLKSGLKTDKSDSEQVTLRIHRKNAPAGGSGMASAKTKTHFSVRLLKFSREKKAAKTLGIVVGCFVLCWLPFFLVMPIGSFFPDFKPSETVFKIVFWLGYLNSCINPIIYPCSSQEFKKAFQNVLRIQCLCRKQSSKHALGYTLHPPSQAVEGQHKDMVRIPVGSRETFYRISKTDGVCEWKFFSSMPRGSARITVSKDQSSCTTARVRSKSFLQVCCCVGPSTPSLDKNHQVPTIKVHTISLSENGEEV
The class given is binding. The following applies: 1 h, 1.0E-06 M.

For experiment [2], the target named is T2, A3 (h) (Homo sapiens, UniProt P0DMS8).
T2 construct: host or cells: HEK-293 cells
T2 sequence (P0DMS8 1-318): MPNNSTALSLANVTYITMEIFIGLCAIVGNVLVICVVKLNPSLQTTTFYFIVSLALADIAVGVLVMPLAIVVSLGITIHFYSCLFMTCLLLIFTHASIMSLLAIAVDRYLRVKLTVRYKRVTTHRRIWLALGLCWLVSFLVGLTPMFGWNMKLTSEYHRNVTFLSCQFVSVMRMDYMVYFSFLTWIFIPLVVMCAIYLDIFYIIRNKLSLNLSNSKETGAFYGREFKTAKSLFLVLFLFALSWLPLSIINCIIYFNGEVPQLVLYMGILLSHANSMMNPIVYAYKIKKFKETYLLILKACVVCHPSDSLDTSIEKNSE
Format: binding. The following applies: 1.0E-06 M.

The subject of experiment [3] is NMDA. The class given is binding, rat. The following applies: 1.0E-06 M.
The target of experiment [4] is T3, H2 (h) (Homo sapiens, UniProt P25021).
T3 construct: host or cells: CHO cells
Format: binding. The following applies: 1.0E-06 M.

Experiment [5] addresses T4, NK1 (h) (Homo sapiens, UniProt P25103).
T4 construct: (endogenous); host or cells: U-373MG cells
Format: binding. To be noted: 1.0E-06 M.

The target of experiment [6] is T5, Y1 (h) (Homo sapiens, UniProt P25929).
T5 construct: (endogenous); host or cells: SK-N-MC cells
T5 sequence (P25929 1-384): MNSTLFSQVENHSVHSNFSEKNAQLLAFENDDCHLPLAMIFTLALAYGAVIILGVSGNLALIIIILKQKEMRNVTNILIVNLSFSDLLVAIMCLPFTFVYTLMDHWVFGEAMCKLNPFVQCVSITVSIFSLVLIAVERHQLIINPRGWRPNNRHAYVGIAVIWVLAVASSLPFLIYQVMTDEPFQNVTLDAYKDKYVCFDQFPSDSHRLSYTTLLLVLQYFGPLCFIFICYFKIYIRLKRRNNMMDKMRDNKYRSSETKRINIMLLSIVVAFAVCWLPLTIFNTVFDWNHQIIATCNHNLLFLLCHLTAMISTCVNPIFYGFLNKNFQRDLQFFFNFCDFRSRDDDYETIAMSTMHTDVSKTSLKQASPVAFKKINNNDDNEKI
The class given is binding. The following applies: 1.0E-06 M.

Experiment [7] has as its system Na+ channel (site 2). Format: binding, rat. The following applies: 1.0E-06 M.

Read-outs that look alike come from different tables or passages of the source.

T4 sequence (P25103 whole entry): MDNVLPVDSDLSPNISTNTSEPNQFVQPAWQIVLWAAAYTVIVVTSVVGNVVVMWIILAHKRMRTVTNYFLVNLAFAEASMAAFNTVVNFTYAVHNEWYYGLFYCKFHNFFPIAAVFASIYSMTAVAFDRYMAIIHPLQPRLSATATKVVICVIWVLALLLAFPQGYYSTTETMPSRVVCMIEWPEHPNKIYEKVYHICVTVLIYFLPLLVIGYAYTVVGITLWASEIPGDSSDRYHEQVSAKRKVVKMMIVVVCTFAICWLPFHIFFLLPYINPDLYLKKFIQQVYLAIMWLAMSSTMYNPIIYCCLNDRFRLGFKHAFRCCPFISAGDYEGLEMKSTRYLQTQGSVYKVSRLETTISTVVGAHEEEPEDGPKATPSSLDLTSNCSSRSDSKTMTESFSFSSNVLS
T3 sequence (P25021 whole entry): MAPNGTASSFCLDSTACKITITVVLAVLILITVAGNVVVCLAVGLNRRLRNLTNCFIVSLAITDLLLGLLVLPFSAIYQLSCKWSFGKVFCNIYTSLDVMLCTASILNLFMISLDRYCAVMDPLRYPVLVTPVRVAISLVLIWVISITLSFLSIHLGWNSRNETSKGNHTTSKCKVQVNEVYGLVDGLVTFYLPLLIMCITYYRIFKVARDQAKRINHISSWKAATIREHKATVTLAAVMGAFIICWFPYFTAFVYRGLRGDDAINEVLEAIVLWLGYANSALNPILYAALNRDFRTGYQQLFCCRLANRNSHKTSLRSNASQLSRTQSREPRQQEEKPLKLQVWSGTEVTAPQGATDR

Take `Cn1c(=O)n(CCCO)c(=O)c2c1nc(Oc1cccc(Cl)c1)n2Cc1ccc(Cl)cc1` [HC-070]: the inhibition at 1 µM in experiment [1] (read-out: % Inhibition 1st) is -6.1%; in experiment [1] (read-out: % Inhibition 2nd), 3.1%; in experiment [1] (read-out: % Inhibition Mean), -1.5%.
Take `Cn1c(=O)n(CCCO)c(=O)c2c1nc(Oc1cccc(OC(F)(F)F)c1)n2Cc1ccc(Cl)cc1` [HC-608]: the inhibition at 1 µM in experiment [2] (read-out: % Inhibition 1st) turned out to be 28.3%; in experiment [2] (read-out: % Inhibition 2nd) it was 36.4%; in experiment [2] (read-out: % Inhibition Mean), 32.3%; in experiment [4] (read-out: % Inhibition 1st) it was 1.1%; in experiment [4] (read-out: % Inhibition 2nd), 7.7%; in experiment [4] (read-out: % Inhibition Mean), 4.4%. The inhibition at 1 µM in experiment [5] (read-out: % Inhibition 1st) was -2.6%; in experiment [5] (read-out: % Inhibition 2nd), -13%; in experiment [5] (read-out: % Inhibition Mean), -7.8%; in experiment [6] (read-out: % Inhibition 1st), -12.8%; in experiment [6] (read-out: % Inhibition 2nd), -14.1%; in experiment [6] (read-out: % Inhibition Mean), -13.4%. Besides, the figures for the “% Inhibition 1st” value in experiment [3] and in experiment [7] were 19% and 12%, respectively. Besides, the “% Inhibition 2nd” value in experiment [3] is reported as 3.2%; in experiment [7] it was -7.3%. Further, the results for the “% Inhibition Mean” value in experiment [3] and in experiment [7] were 11.1% and 2.3%, respectively.

One may read the inhibition as the drop in the measured response relative to a control, in per cent.
